Patent US10010076B2, “Plant control composition containing peptide enhancing agent” (Arch Chemicals, Inc., priority 2013, dated 2018)

Experiments:
[1] = system: cyanophyta (blue-green algae); test: Toxicity experiment on algae in Morrison Lake site water (chlorophyll-a, visual observations, total algae cell density); type: cell-based
Method: (§1) Five formulations were prepared and tested. The formulations included various pesticides used singularly, a protein surfactant blend used singularly, and pesticides used in combination with a protein surfactant blend. The tests were conducted on cyanophyta (blue-green algae) sampled from Morrison Lake located in Ionia County, Mich. The properties that were tested included the chlorophyll-a concentrations, cell densities, visual observations, and partial application label rates of chelated elemental copper and sodium carbonate peroxyhydrate. The initial chlorophyll-a concentration was determined to be 27.4 μg chlorophyll a/L. The initial water characteristics are listed in table 1. […]
(§2) The formulation tested was sodium carbonate peroxyhydrate and the exposure period was 10 days.
(§3) The algae were exposed to three concentrations in 500 mL flasks. The experiments were initiated using 300 mL of site water. The toxicity experiment was initiated by exposing the algae to 7.4, 22.1, and 36.9 mg sodium carbonate peroxyhydrate/L. Three replicates of each exposure concentration, along with three replicates of untreated controls, were tested. […]

[2] = system: Anabaena sp.; test: Toxicity experiment on algae in Morrison Lake site water, cell density of Anabaena sp.; type: cell-based
Method: as §1, §2, §3

[3] = system: Aphanizomenon sp.; test: Toxicity experiment on algae in Morrison Lake site water, cell density of Aphanizomenon sp.; type: cell-based
Method: as §1, §2, §3

[4] = system: Eurasian watermilfoil; test: Eurasian watermilfoil aquaria trial, biomass 4 weeks after treatment; conditions: 8 hr exposure

Structure (SMILES)	Avg. Day 4 Chlorophyll-a ([1]; 7.4 mg/L (20 lbs/acre-ft)) [µg/L]	Avg. Day 10 Chlorophyll-a ([1]; 7.4 mg/L (20 lbs/acre-ft)) [µg/L]	Avg. Day 4 Chlorophyll-a ([1]; 22.1 mg/L (60 lbs/acre-ft)) [µg/L]	Avg. Day 10 Cell Density, Total algae ([1]; 22.1 mg/L (60 lbs/acre-ft))	Avg. Day 10 Chlorophyll-a ([1]; 22.1 mg/L (60 lbs/acre-ft)) [µg/L]	Avg. Day 4 Cell Density, Total algae ([1]; 36.9 mg/L (100 lbs/acre-ft))	Avg. Day 4 Chlorophyll-a ([1]; 36.9 mg/L (100 lbs/acre-ft)) [µg/L]	Avg. Day 10 Cell Density, Total algae ([1]; 36.9 mg/L (100 lbs/acre-ft))	Avg. Day 10 Chlorophyll-a ([1]; 36.9 mg/L (100 lbs/acre-ft)) [µg/L]	concentration of sodium carbonate peroxyhydrate needed for algae control ([1]; sodium carbonate peroxyhydrate applied alone) [ppm]	Avg. Day 4 Cell Density, Anabaena sp. ([2]; 7.4 mg/L (20 lbs/acre-ft))	Avg. Day 10 Cell Density, Anabaena sp. ([2]; 7.4 mg/L (20 lbs/acre-ft))	Avg. Day 4 Cell Density, Anabaena sp. ([2]; 22.1 mg/L (60 lbs/acre-ft))	Avg. Day 4 Cell Density, Aphanizomenon sp. ([3]; 7.4 mg/L (20 lbs/acre-ft))	Avg. Day 10 Cell Density, Aphanizomenon sp. ([3]; 7.4 mg/L (20 lbs/acre-ft))	Avg. Day 4 Cell Density, Aphanizomenon sp. ([3]; 22.1 mg/L (60 lbs/acre-ft))	regrowth of Eurasian watermilfoil ([4]; 0.1 mg ai/L, 2 WAT)	injury to Eurasian watermilfoil ([4]; 0.1 mg ai/L, initial)	reducing Eurasian watermilfoil biomass ([4]; 0.2 mg ai/L, 4 WAT)
O=C([O-])[O-].O=C([O-])[O-].OO.OO.OO.[Na+].[Na+].[Na+].[Na+] [Sodium Carbonate Peroxyhydrate, sodium carbonate peroxyhydrate]	22.5	8.6	12.5	<1 × 10^3 cells of/mL	2.7	<1 × 10^3 cells/mL	7.9	<1 × 10^3 cells of/mL	<2	22.7	8.9 × 10^4 cells/mL	4.1 × 10^4 cells of/mL	1.8 × 10^4 cells/mL	1.1 × 10^3 cells/mL	2.8 × 10^4 cells of/mL	6.5 × 10^4 cells/mL	–	–	–
CCOC(=O)C(Cl)Cc1cc(-n2nc(C)n(C(F)F)c2=O)c(F)cc1Cl (stereo not shown) [Carfentrazone-ethyl, Ethyl 2-chloro-3-[2-chloro-4-fluoro-5-[4-(difluoromethyl)-4,5-dihydro-3-methyl-5-oxo-1H-1,2,4-trizol-1-yl)phenyl]propanoate]	–	–	–	–	–	–	–	–	–	–	–	–	–	–	–	–	regrowth was noted	initial injury observed	effective at reducing Eurasian watermilfoil biomass
